Experimental data: patent US5972671A, “Fructosyl amino acid oxidase and process for producing the same” (Kyoto Daiichi Kagaku Co., Ltd., priority 1994, dated 1999)
Read-outs that look alike come from different tables or passages of the source.

Key:
[1] = tested on: FLOD-G derived from Gibberella fujikuroi; assay: Effect of various inhibitors on the activity of FLOD-G; stabilization; type: biochemical
Description: The inhibitory effect of various substances was tested in a manner substantially analogous to that described in (1) above. The stabilization effect was examined by dialyzing overnight against 50 mM Tris-HCl buffer (pH 8.5) containing 2 mM DTT and measuring the activity.

[2] = tested on: FLOD-S derived from S-1F4 strain; assay: Effect of various inhibitors on activity of FLOD-S; stabilization; type: biochemical, Fusarium oxysporum S-1F4
Description: In the present test, the final concentration of PCMB (parachloro mercuric benzoate) is 0.1 mM while that of others 1 mM. The stabilization effect was examined by dialyzing the mixture overnight against 50 mM Tris-HCl buffer (pH 8.5) containing 2 mM dithiothreitol (DTT) and measuring the enzyme activity.

[3] = tested on: FLOD-S derived from S-1F4 strain; assay: Effect of metal ion on the activity of FLOD-S; type: biochemical, Fusarium oxysporum S-1F4
Description: After 5 minutes of incubation at 30° C., the enzyme activity was evaluated.

[4] = tested on: FLOD-G derived from Gibberella fujikuroi (IFO No. 6605); assay: Effect of metal ion on the activity of FLOD-G; type: biochemical
Description: Then, the enzyme activity was evaluated.

[5] = tested on: FLOD-S derived from S-1F4 strain; assay: Substrate specificity of FLOD-S (hydrogen peroxide generation)
Description: The partially purified enzyme was prepared in the following manner. Thus, S-1F4 strain was grown in a GL brown-colored medium for 24 hours and the culture was filtered with suction to harvest mycelia. The mycelia were then washed, suspended in 0.1 M Tris-HCl buffer (pH 8.5), ground by means of Dino-Mill and centrifuged. The centrifugal supernatant is fractionated with ammonium sulfate and purified using DEAE-Sephacel ion-exchange chromatography to obtain the partially purified enzyme. The purified enzyme was prepared according to the method described in Example 1 below.
A 50 mM FZL solution was prepared by dissolving FZL previously obtained in distilled water. To a mixture of 100 μl of 45 mM 4-aminoantipyrine, 100 μl of peroxidase (60 U/ml), 100 μl of 60 mM phenol, 1 ml of 0.1 M Tris-HCl buffer (pH 8.0) and 50 μl of enzyme solution was added distilled water to give a total volume of 2.9 ml and the solution was allowed to equilibrate at 30° C. After the addition of 100 μl of 50 mM FZl solution, the time-course of absorbance at 505 nm was measured. The amount (μmol) of hydrogen peroxide produced in one minute was calculated on the basis of a molar absorption coefficient (5.16×10^3 M^-1 cm^-1) of a quinone pigment produced. The resultant numerical value was taken as a unit(U) of enzyme activity.

[6] = tested on: FLOD-G derived from Gibberella fujikuroi; assay: Substrate specificity of FLOD-G
Description: To a mixture of 100 μl of 45 mM 4-aminoantipyrine, 100 μl of peroxidase solution (60 U/ml), 100 μl of 60 mM phenol, 1 ml of 0.1 M Tris-HCl buffer (pH 8.0) and 50 μl of enzyme solution, was added distilled water to give a total volume of 2.95 ml and the solution was allowed to be equilibrated at 30° C. After the addition of 50 μl of 100 mM FZL solution, the time-course of absorbance at 505 nm was measured. The amount (μmol) of hydrogen peroxide produced in one minute was calculated on the basis of a molar absorption coefficient (5.16×10^3 M^-1 cm^-1) of a quinone pigment produced. The resultant numerical value was taken as a unit (U) of enzyme activity.

[7] = inhibitor (mM), concentration not given, None = 100
[8] = metal 1 mM, 0.1 M Tris-HCl pH 8.0, 5 minutes at 30° C., None = 100
[9] = metal 1 mM, 0.1 M Tris-HCl pH 8.0, pre-incubated 5 minutes at 30° C., None = 100
[10] = partially purified FLOD-S, substrate 0.018%

Row | Compound | Specific activity (%) [1, 7] | Specific activity (%) ([2]; reagent 1 mM, None = 100) | Specific activity (%) [3, 8] | Specific activity (%) [4, 9] | also measured
1 | O[C@H](CS)[C@H](O)CS (racemic) [dithiothreitol] |  |  |  |  | Stabilization of FLOD-G ([1]; dialysis overnight against 50 mM Tris-HCl buffer (pH 8.5) containing 2 mM DTT): stabilized; Stabilization of FLOD-S ([2]; pH 8.5): stabilized
2 | O=C(O)c1cc(SSc2ccc([N+](=O)[O-])c(C(=O)O)c2)ccc1[N+](=O)[O-] [5,5',-Dithiobis(2-nitrobenzoic acid)] | 76% | 95% |  |  | 
3 | O=[N+]([O-])[O-].[Ag+] [AgNO3] |  |  | 0% | 0% | Inhibition of FLOD-S activity by metal ion ([3]; metal 1 mM): completely inhibited; Inhibition of FLOD-G activity by metal ion ([4]; metal 1 mM): completely inhibited
4 | N=C(N)NN [Aminoguanidine] | 50% | 66% |  |  | Inhibition of FLOD-G activity by inhibitor [1]: strongly inhibited
5 | [Ba+2].[Cl-].[Cl-] [BaCl2] |  |  | 60% | 103% | 
6 | [Ca+2].[Cl-].[Cl-] [CaCl2] |  |  | 77% | 97% | 
7 | C#CCN(C)CCCOc1ccc(Cl)cc1Cl [Clorgyline] |  | 132% |  |  | 
8 | O=S(=O)([O-])[O-].[Co+2] [CoSO4] |  |  | 42% | 15% | Inhibition of FLOD-G activity by metal ion ([4]; metal 1 mM): inhibited
9 | [Cl-].[Cs+] [CsCl2] |  |  | 102% | 97% | 
10 | [Cl][Cu][Cl] [CuCl2] |  |  | 0% | 2% | Inhibition of FLOD-S activity by metal ion ([3]; metal 1 mM): completely inhibited; Inhibition of FLOD-G activity by metal ion ([4]; metal 1 mM): inhibited
11 | C#CCN(C)C(C)Cc1ccccc1 (stereo not shown) [Deprenyl] | 81% | 102% |  |  | 
12 | O=C(O)CN(CCN(CC(=O)O)CC(=O)O)CC(=O)O [EDTA] |  |  |  |  | Specific activity (%) [1]: 81%
13 | [Cl][Fe]([Cl])[Cl] [FeCl3] |  |  | 67% | 16% | Inhibition of FLOD-G activity by metal ion ([4]; metal 1 mM): inhibited
14 | O=S(=O)([O-])[O-].[Fe+2] [FeSO4] |  |  | 97% | 74% | 
15 | O=C(N[C@@H](CCCCNCC(=O)[C@@H](O)[C@H](O)[C@H](O)CO)C(=O)O)OCc1ccccc1 [Fructosyl N^α -Z-lysine, fructosyl N^α -Z-lysine] |  |  |  |  | Specificity of FLOD-S to substrate [5]: remarkably specific
16 | [Cl][Hg][Cl] [HgCl2] |  |  | 0% | 25% | Inhibition of FLOD-S activity by metal ion ([3]; metal 1 mM): completely inhibited; Inhibition of FLOD-G activity by metal ion ([4]; metal 1 mM): inhibited
17 | NN [Hydrazine] | 14% | 13% |  |  | Inhibition of FLOD-G activity by inhibitor [1]: strongly inhibited; Inhibition of FLOD-S activity by inhibitor [2]: inhibited

Row | Compound | Specific activity (%) [1, 7] | Specific activity (%) ([2]; reagent 1 mM, None = 100) | Specific activity (%) [3, 8] | Specific activity (%) [4, 9] | also measured
18 | NO [Hydroxylamine] | 16% | 21% |  |  | Inhibition of FLOD-G activity by inhibitor [1]: strongly inhibited
19 | O=C(O)CI [Iodoacetic acid] |  |  |  |  | Specific activity (%) [1]: 77%; Specific activity (%) [2]: 102%
20 | [Cl-].[K+] [KCl] |  |  | 104% | 98% | 
21 | [Cl-].[Li+] [LiCl] |  |  | 100% | 96% | 
22 | [Cl-].[Cl-].[Mg+2] [MgCl2] |  |  | 75% | 94% | 
23 | [Cl][Mn][Cl] [MnCl2] |  |  | 154% | 115% | 
24 | [Cl-].[Na+] [NaCl] |  |  |  |  | Specific activity (%) ([3]; pH 8): 107%; Specific activity (%) ([4]; pH 8): 97%
25 | c1cnc2c(c1)ccc1cccnc12 [O-Phenanthrolene] | 78% | 103% |  |  | 
26 | O=C(O)c1cc[c]([Hg][Cl])cc1 [PCMB, parachloro mercuric benzoate] |  |  |  |  | Inhibition of FLOD-G activity by inhibitor [1]: strongly inhibited; Specific activity (%) ([1]; inhibitor 0.1 mM, None = 100): 51%; Inhibition of FLOD-S activity by inhibitor ([2]; PCMB 0.1 mM, others 1 mM): completely inhibited; Specific activity (%) ([2]; reagent 0.1 mM, None = 100): 0%
27 | NNc1ccccc1 [Phenylhydrazine] | 13% | 2.6% |  |  | Inhibition of FLOD-G activity by inhibitor [1]: strongly inhibited; Inhibition of FLOD-S activity by inhibitor [2]: inhibited
28 | [Cl-].[Rb+] [RbCl] |  |  | 103% | 97% | 
29 | NNC(N)=O [Semicarbazide] | 77% | 103% |  |  | 
30 | [N-]=[N+]=[N-] [Sodium azide] | 78% | 101% |  |  | 
31 | O=S(=O)([O-])[O-].[Zn+2] [ZnSO4] |  |  | 0% | 33% | Inhibition of FLOD-S activity by metal ion ([3]; metal 1 mM): completely inhibited; Inhibition of FLOD-G activity by metal ion ([4]; metal 1 mM): inhibited
32 | c1ccc(-c2ccccn2)nc1 [α,α'-Dipyridyl] | 78% | 106% |  |  | 
33 | Fructosyl poly-L-lysine |  |  |  |  | Activity of FLOD-G on substrate [6]: active; Specific activity (%) ([6]; FLOD-G, substrate 0.017%): 1.0%; Specificity of FLOD-S to substrate [5]: specific; Activity [5, 10]: 0.0738 U/ml; Specific activity (%) [5, 10]: 2.3%; Specific activity (%) ([5]; purified FLOD-S, substrate 0.02%): 2.3%
